# Source: publication PMC5218480 (PLoS ONE, 2017)
# Tested on: MV-4-11 cells
# Assay: Gene expression microarray analysis (Affymetrix PrimeView) and GSEA
# Assay type: cell-based, human
# Set-up: RFU PODN (11730768_x_at) / Fold change /veh PODN (11730768_x_at) / RFU LINC00158 (11744669_a_at) / Fold change /veh LINC00158 (11744669_a_at) / RFU DUSP10 (11751237_a_at) / Fold change /veh DUSP10 (11751237_a_at) / RFU ID3 (11757404_x_at) / Fold change /veh ID3 (11757404_x_at) / RFU PLEKHG5 (11737974_s_at) / Fold change /veh PLEKHG5 (11737974_s_at) / RFU LRRC4B (11730491_at) / Fold change /veh LRRC4B (11730491_at) / RFU GIMAP4 (11747438_a_at) / Fold change /veh GIMAP4 (11747438_a_at) / RFU KRT8 (11758183_x_at) / Fold change /veh KRT8 (11758183_x_at) / RFU CNN1 (11734310_a_at) / Fold change /veh CNN1 (11734310_a_at) / RFU VPS37D (11726825_at) / Fold change /veh VPS37D (11726825_at) / RFU C10orf10 (11716522_x_at) / Fold change /veh C10orf10 (11716522_x_at) / RFU KIR2DL2 /// KIR2DL4 /// KIR2DL5A /// KIR2DL5B /// KIR2DS1 /// KIR2DS2 /// KIR2DS3 /// KIR2DS4 /// KIR3DL3 /// KIR3DL3 /// KIR3DS1 (11738374_at) / Fold change /veh KIR2DL2 /// KIR2DL4 /// KIR2DL5A /// KIR2DL5B /// KIR2DS1 /// KIR2DS2 /// KIR2DS3 /// KIR2DS4 /// KIR3DL3 /// KIR3DL3 /// KIR3DS1 (11738374_at) / RFU C1QL1 (11718748_at) / Fold change /veh C1QL1 (11718748_at) / RFU TMPRSS4 (11747572_a_at) / Fold change /veh TMPRSS4 (11747572_a_at) / RFU HAMP (11756126_x_at) / Fold change /veh HAMP (11756126_x_at) / RFU RNFT2 (11725882_a_at) / Fold change /veh RNFT2 (11725882_a_at) / RFU NR4A2 (11747474_a_at) / Fold change /veh NR4A2 (11747474_a_at) / RFU ABCC12 (11746883_a_at) / Fold change /veh ABCC12 (11746883_a_at) / RFU TMEM136 (11760407_x_at) / Fold change /veh TMEM136 (11760407_x_at) / RFU CLDN22 /// WWC2 (11732394_at) / Fold change /veh CLDN22 /// WWC2 (11732394_at) / RFU HLA-DPB1 (11760878_x_at) / Fold change /veh HLA-DPB1 (11760878_x_at) / RFU SPINT1 (11716480_a_at) / Fold change /veh SPINT1 (11716480_a_at) / RFU GAP43 (11754022_s_at) / Fold change /veh GAP43 (11754022_s_at) / RFU A4GNT (11735810_at) / Fold change /veh A4GNT (11735810_at) / RFU PRB3 (11715151_x_at) / Fold change /veh PRB3 (11715151_x_at) / RFU TUBB4B (11761932_at) / Fold change /veh TUBB4B (11761932_at) / RFU CAPN14 (11732068_a_at) / Fold change /veh CAPN14 (11732068_a_at) / RFU TMCC2 (11721928_a_at) / Fold change /veh TMCC2 (11721928_a_at) / RFU IRGQ (11745062_a_at) / Fold change /veh IRGQ (11745062_a_at) / RFU FAM174B (11720279_a_at) / Fold change /veh FAM174B (11720279_a_at) / RFU TMPRSS4 (11748680_a_at) / Fold change /veh TMPRSS4 (11748680_a_at) / RFU FAM212B (11763350_a_at) / Fold change /veh FAM212B (11763350_a_at) / RFU PLEKHG5 (11743358_a_at) / Fold change /veh PLEKHG5 (11743358_a_at) / RFU ZSCAN30 (11745921_a_at) / Fold change /veh ZSCAN30 (11745921_a_at) / RFU CMKLR1 (11741424_a_at) / Fold change /veh CMKLR1 (11741424_a_at) / RFU LOC101060620 /// MAPK8IP1 (11723275_at) / Fold change /veh LOC101060620 /// MAPK8IP1 (11723275_at) / RFU SPTSSB (11747773_x_at) / Fold change /veh SPTSSB (11747773_x_at) / RFU PRSS12 (11739890_at) / Fold change /veh PRSS12 (11739890_at) / RFU BIN1 (11741810_x_at) / Fold change /veh BIN1 (11741810_x_at) / RFU WNT11 (11732464_a_at) / Fold change /veh WNT11 (11732464_a_at) / RFU C10orf10 (11716521_a_at) / Fold change /veh C10orf10 (11716521_a_at) / RFU C5orf56 (11738089_at) / Fold change /veh C5orf56 (11738089_at) / RFU CYB561 (11721691_x_at) / Fold change /veh CYB561 (11721691_x_at) / RFU ANKRD19P (11752326_a_at) / Fold change /veh ANKRD19P (11752326_a_at) / RFU OR2T12 /// OR2T33 /// OR2T8 (11738714_s_at) / Fold change /veh OR2T12 /// OR2T33 /// OR2T8 (11738714_s_at) / RFU VCAN (11748164_a_at) / Fold change /veh VCAN (11748164_a_at) / RFU JSRP1 (11732532_at) / Fold change /veh JSRP1 (11732532_at) / RFU KRTAP10-11 (11738290_x_at) / Fold change /veh KRTAP10-11 (11738290_x_at) / RFU MYO3A (11730013_a_at) / Fold change /veh MYO3A (11730013_a_at) / RFU EBF3 (11725865_a_at) / Fold change /veh EBF3 (11725865_a_at) / RFU CAMK2N1 (11719241_x_at) / Fold change /veh CAMK2N1 (11719241_x_at) / RFU C5orf56 (11738088_a_at) / Fold change /veh C5orf56 (11738088_a_at) / RFU OLFML3 (11715873_a_at) / Fold change /veh OLFML3 (11715873_a_at) / RFU LOC100653217 /// NTM (11731650_a_at) / Fold change /veh LOC100653217 /// NTM (11731650_a_at) / RFU MAPK11 (11762145_a_at) / Fold change /veh MAPK11 (11762145_a_at) / RFU FIZ1 (11724087_x_at) / Fold change /veh FIZ1 (11724087_x_at) / RFU OASL (11726364_x_at) / Fold change /veh OASL (11726364_x_at) / RFU SOX15 (11748057_x_at) / Fold change /veh SOX15 (11748057_x_at) / RFU CD79A (11719716_a_at) / Fold change /veh CD79A (11719716_a_at) / RFU HIST1H1D (11736915_at) / Fold change /veh HIST1H1D (11736915_at) / RFU CASKIN2 (11723855_a_at) / Fold change /veh CASKIN2 (11723855_a_at) / RFU LOC730098 (11760151_x_at) / Fold change /veh LOC730098 (11760151_x_at) / RFU OR4N2 (11742367_at) / Fold change /veh OR4N2 (11742367_at) / RFU PRRT2 (11749266_a_at) / Fold change /veh PRRT2 (11749266_a_at) / RFU SNX32 (11753110_a_at) / Fold change /veh SNX32 (11753110_a_at) / RFU CDHR5 (11726645_a_at) / Fold change /veh CDHR5 (11726645_a_at) / RFU RCAN1 (11760418_a_at) / Fold change /veh RCAN1 (11760418_a_at) / RFU FAM167A (11723789_a_at) / Fold change /veh FAM167A (11723789_a_at) / RFU FAM26E (11764081_at) / Fold change /veh FAM26E (11764081_at) / RFU ISYNA1 (11749810_s_at) / Fold change /veh ISYNA1 (11749810_s_at) / RFU ACY1 (11761880_at) / Fold change /veh ACY1 (11761880_at) / RFU 11764098_at / Fold change /veh 11764098_at / RFU SAMD14 (11745864_x_at) / Fold change /veh SAMD14 (11745864_x_at) / RFU NPB (11741838_a_at) / Fold change /veh NPB (11741838_a_at) / RFU TMPRSS6 (11731388_a_at) / Fold change /veh TMPRSS6 (11731388_a_at) / RFU KRTAP10-2 (11738614_at) / Fold change /veh KRTAP10-2 (11738614_at) / RFU ARHGAP8 /// PRR5-ARHGAP8 (11727945_x_at) / Fold change /veh ARHGAP8 /// PRR5-ARHGAP8 (11727945_x_at) / RFU KRTAP5-7 /// NADSYN1 (11734609_at) / Fold change /veh KRTAP5-7 /// NADSYN1 (11734609_at) / RFU RASL12 (11751679_a_at) / Fold change /veh RASL12 (11751679_a_at) / RFU CDKN2B (11736163_a_at) / Fold change /veh CDKN2B (11736163_a_at) / RFU PRF1 (11729649_at) / Fold change /veh PRF1 (11729649_at) / RFU, ZNF638 /// ZNF638-IT1 / Fold change vs veh, ZNF638 /// ZNF638-IT1 / RFU, PANK3 / Fold change vs veh, PANK3 / RFU, SH3YL1 / Fold change vs veh, SH3YL1 / RFU, ZEB2 / Fold change vs veh, ZEB2 / RFU, NRIP1 / Fold change vs veh, NRIP1 / RFU, PTTG1IP / Fold change vs veh, PTTG1IP / RFU, CAPN2 / Fold change vs veh, CAPN2 / RFU, MED14 / Fold change vs veh, MED14 / RFU, SNORA58 / Fold change vs veh, SNORA58 / RFU, C1orf63 / Fold change vs veh, C1orf63 / RFU, LRRFIP1 / Fold change vs veh, LRRFIP1 / RFU, NDUFAF7 / Fold change vs veh, NDUFAF7 / RFU, SLC12A2 / Fold change vs veh, SLC12A2 / RFU, IBTK / Fold change vs veh, IBTK / RFU, ESF1 / Fold change vs veh, ESF1 / Fold change vs veh, TMEM50B / RFU, TAOK1 / Fold change vs veh, TAOK1 / RFU, ACBD3 / Fold change vs veh, ACBD3 / RFU, TMA16 / Fold change vs veh, TMA16 / RFU, RWDD3 / Fold change vs veh, RWDD3 / RFU, BCAT1 / Fold change vs veh, BCAT1 / RFU, EDEM3 / Fold change vs veh, EDEM3 / RFU, TMEM33 / Fold change vs veh, TMEM33 / RFU, WDR75 / Fold change vs veh, WDR75 / RFU, AHCTF1 / Fold change vs veh, AHCTF1 / RFU, TFRC / Fold change vs veh, TFRC / RFU, ZDHHC17 / Fold change vs veh, ZDHHC17 / RFU, NOM1 / Fold change vs veh, NOM1 / RFU, ARL8B / Fold change vs veh, ARL8B / RFU, ZBTB11 / Fold change vs veh, ZBTB11 / RFU, TAMM41 / Fold change vs veh, TAMM41 / RFU, KIAA1704 /// LOC100996395 / Fold change vs veh, KIAA1704 /// LOC100996395 / RFU, ING1 / Fold change vs veh, ING1 / RFU, TRMT61B / Fold change vs veh, TRMT61B / RFU, FUBP3 / Fold change vs veh, FUBP3 / RFU, TP53 / Fold change vs veh, TP53 / RFU, TNKS2 / Fold change vs veh, TNKS2 / RFU, ZFP14 / Fold change vs veh, ZFP14 / RFU, ACTR2 / Fold change vs veh, ACTR2 / RFU, PPP3R1 / Fold change vs veh, PPP3R1 / RFU, PIK3R1 / Fold change vs veh, PIK3R1 / RFU, HNRNPA1 / Fold change vs veh, HNRNPA1 / RFU, RNF170 / Fold change vs veh, RNF170 / RFU, ZNF28 / Fold change vs veh, ZNF28 / RFU, RNGTT / Fold change vs veh, RNGTT / RFU, OGT / Fold change vs veh, OGT / RFU, BRD1 / Fold change vs veh, BRD1 / RFU, MARS / Fold change vs veh, MARS / RFU, ZNF655 / Fold change vs veh, ZNF655 / RFU, FAHD1 / Fold change vs veh, FAHD1 / RFU, BDP1 / Fold change vs veh, BDP1 / RFU, LRRCC1 / Fold change vs veh, LRRCC1 / RFU, ARID1A / Fold change vs veh, ARID1A / RFU, ZNF146 / Fold change vs veh, ZNF146 / RFU, ZNF330 / Fold change vs veh, ZNF330 / RFU, GPN3 / Fold change vs veh, GPN3 / RFU, C9orf123 / Fold change vs veh, C9orf123 / RFU, N4BP2L2 / Fold change vs veh, N4BP2L2 / RFU, ARFIP1 / Fold change vs veh, ARFIP1 / RFU, FAM179B / Fold change vs veh, FAM179B / RFU, BCL10 / Fold change vs veh, BCL10 / RFU, UHRF1BP1L / Fold change vs veh, UHRF1BP1L / RFU, BET1 / Fold change vs veh, BET1 / RFU, CNOT2 / Fold change vs veh, CNOT2 / RFU, ZNF268 / Fold change vs veh, ZNF268 / Fold change vs veh, ZNF507 / RFU, DGCR2 / Fold change vs veh, DGCR2 / RFU, WDSUB1 / Fold change vs veh, WDSUB1 / Fold change vs veh, HSP90B1 /// MIR3652 / RFU, ADSS / Fold change vs veh, ADSS / RFU, GK / Fold change vs veh, GK / RFU, ZNF148 / Fold change vs veh, ZNF148 / RFU, TAF9 / Fold change vs veh, TAF9 / RFU, SLC1A5 / Fold change vs veh, SLC1A5 / RFU, SLMO2 / Fold change vs veh, SLMO2 / RFU, ABCC4 / Fold change vs veh, ABCC4 / RFU, LOC101060439 /// RAP1B / Fold change vs veh, LOC101060439 /// RAP1B / RFU, RFX7 / Fold change vs veh, RFX7 / RFU, GTPBP10 / Fold change vs veh, GTPBP10 / RFU, CNEP1R1 / Fold change vs veh, CNEP1R1 / RFU, BIVM-ERCC5 /// ERCC5 / Fold change vs veh, BIVM-ERCC5 /// ERCC5 / RFU, ILF3 / Fold change vs veh, ILF3 / RFU 11762660_at / Fold change /veh 11762660_at / RFU VCAN (11757783_s_at) / Fold change /veh VCAN (11757783_s_at) / RFU DDX43 (11728927_at) / Fold change /veh DDX43 (11728927_at) / RFU KRT8 (11758188_x_at) / Fold change /veh KRT8 (11758188_x_at) / RFU NKD1 (11759106_at) / Fold change /veh NKD1 (11759106_at) / RFU SRD5A1 (11742802_a_at) / Fold change /veh SRD5A1 (11742802_a_at) / RFU TPSAB1 /// TPSB2 (11721975_s_at) / Fold change /veh TPSAB1 /// TPSB2 (11721975_s_at) / RFU GSTM3 (11746129_a_at) / Fold change /veh GSTM3 (11746129_a_at) / RFU IL23R (11737362_x_at) / Fold change /veh IL23R (11737362_x_at) / RFU TMEM51 (11727254_a_at) / Fold change /veh TMEM51 (11727254_a_at) / RFU PIWIL2 (11732686_x_at) / Fold change /veh PIWIL2 (11732686_x_at) / RFU ORM1 (11744905_x_at) / Fold change /veh ORM1 (11744905_x_at) / RFU CCDC152 (11743942_at) / Fold change /veh CCDC152 (11743942_at) / RFU ECM1 (11717891_a_at) / Fold change /veh ECM1 (11717891_a_at) / RFU IL23R (11748794_a_at) / Fold change /veh IL23R (11748794_a_at) / RFU TNFAIP8L3 (11732012_x_at) / Fold change /veh TNFAIP8L3 (11732012_x_at) / RFU MBOAT4 (11741988_at) / Fold change /veh MBOAT4 (11741988_at) / RFU 11764193_at / Fold change /veh 11764193_at / RFU TMEM53 (11763286_at) / Fold change /veh TMEM53 (11763286_at) / RFU MAGEB2 (11727129_at) / Fold change /veh MAGEB2 (11727129_at) / RFU TMEM200A (11744735_a_at) / Fold change /veh TMEM200A (11744735_a_at) / RFU CCDC152 (11751479_a_at) / Fold change /veh CCDC152 (11751479_a_at) / RFU FAM211A (11726209_a_at) / Fold change /veh FAM211A (11726209_a_at) / RFU RGS16 (11746705_a_at) / Fold change /veh RGS16 (11746705_a_at) / RFU VCAN (11755009_s_at) / Fold change /veh VCAN (11755009_s_at) / RFU RHOB (11743442_s_at) / Fold change /veh RHOB (11743442_s_at) / RFU RGS16 (11720943_a_at) / Fold change /veh RGS16 (11720943_a_at) / RFU RGS16 (11720944_at) / Fold change /veh RGS16 (11720944_at) / RFU, VPS4B / Fold change vs veh, VPS4B / RFU, CREB1 / Fold change vs veh, CREB1 / RFU, DNAJC13 / Fold change vs veh, DNAJC13 / RFU, GNAQ / Fold change vs veh, GNAQ / RFU, CDK5R1 / Fold change vs veh, CDK5R1 / RFU, ZRANB3 / Fold change vs veh, ZRANB3 / RFU, CUL4A / Fold change vs veh, CUL4A / RFU, CCNY / Fold change vs veh, CCNY / RFU, UFL1 / Fold change vs veh, UFL1 / RFU, COG3 / Fold change vs veh, COG3 / RFU, DIAPH2 / Fold change vs veh, DIAPH2 / RFU, SKA2 / Fold change vs veh, SKA2 / RFU, AFF3 / Fold change vs veh, AFF3 / RFU, LMF1 / Fold change vs veh, LMF1 / RFU, IPO11 / Fold change vs veh, IPO11 / RFU, DFFB / Fold change vs veh, DFFB / RFU, FOXP1 / Fold change vs veh, FOXP1 / RFU, CARD8 / Fold change vs veh, CARD8 / RFU, STRN3 / Fold change vs veh, STRN3 / RFU, ADK / Fold change vs veh, ADK / RFU, RASSF2 / Fold change vs veh, RASSF2 / RFU, WIPF1 / Fold change vs veh, WIPF1 / RFU, LARP1B / Fold change vs veh, LARP1B / RFU, RASA1 / Fold change vs veh, RASA1 / RFU, RB1 / Fold change vs veh, RB1 / RFU, PPFIA1 / Fold change vs veh, PPFIA1 / RFU, MAT2A / Fold change vs veh, MAT2A / RFU, CCT5 / Fold change vs veh, CCT5 / RFU, WDR92 / Fold change vs veh, WDR92 / RFU, CUX1 / Fold change vs veh, CUX1 / RFU, TTC7A / Fold change vs veh, TTC7A / RFU, TMEM135 / Fold change vs veh, TMEM135 / RFU, DEPTOR / Fold change vs veh, DEPTOR / RFU, CPM / Fold change vs veh, CPM / RFU, DNAJB6 / Fold change vs veh, DNAJB6 / RFU, CACNA2D3 / Fold change vs veh, CACNA2D3 / RFU, DTX4 / Fold change vs veh, DTX4 / RFU, TFCP2 / Fold change vs veh, TFCP2 / RFU, GMCL1 /// GMCL1P1 / Fold change vs veh, GMCL1 /// GMCL1P1 / RFU, AEBP2 / Fold change vs veh, AEBP2 / RFU, SNHG1 /// SNORD22 /// SNORD25 /// SNORD26 /// SNORD27 /// SNORD28 /// SNORD29 /// SNORD31 / Fold change vs veh, SNHG1 /// SNORD22 /// SNORD25 /// SNORD26 /// SNORD27 /// SNORD28 /// SNORD29 /// SNORD31 / Fold change (Aza/veh), C12orf56 (ProbeSet 11735607_a_at) / Fold change (ACY-1035/veh), C12orf56 (ProbeSet 11735607_a_at) / Fold change (Aza/veh), FGFR1OP (ProbeSet 11751329_s_at) / Fold change (ACY-1035/veh), FGFR1OP (ProbeSet 11751329_s_at) / Fold change (Aza/veh), VPS36 (ProbeSet 11739960_a_at) / Fold change (ACY-1035/veh), VPS36 (ProbeSet 11739960_a_at) / RFU SYPL1 (11715823_x_at) / Fold change /veh SYPL1 (11715823_x_at) / RFU IGFBP7 (11715501_s_at) / Fold change /veh IGFBP7 (11715501_s_at) / RFU REEP3 (11722064_at) / Fold change /veh REEP3 (11722064_at) / RFU IGLL1 (11728026_x_at) / Fold change /veh IGLL1 (11728026_x_at): dose or concentration left out as unconfirmed
# Conditions: MV-4-11 cells, 48 hours
smiles,measurement,value
Nc1ccc(-c2cccs2)cc1NC(=O)c1ccc2c(c1)cc(C1CC1)n2CCN1CCOCC1 [ACY-1035],RFU HAMP (11756126_x_at),352.00 RFU
